One block for each compound: values may come before it.
Biological target: PCSK9 (Homo sapiens, UniProt Q8NBP7)
Experiment: PCSK9-LDLR in vitro Binding Assay (ELISA)
Protocol: The PCSK9-LDLR in vitro Binding Assay is a quantitative solid phase binding assay between PCSK9 and recombinant LDLR. Plates were pre-coated with a recombinant LDLR-AB domain, which binds PCSK9. Test compound at different concentration was added to the PCSK9 and added to LDLR immobilized on the wells. The amount of bound PCSK9 is measured by binding it with biotinylated anti-His-tag monoclonal antibody, followed by binding with horseradish peroxidase conjugated streptavidin substrate. The color was quantified by ELISA reader at […] which reflects the relative amount of PCSK9 that binds to LDLR in presence and absence of the inhibitor. EC50 values were calculated by nonlinear regression analysis using graph pad prism software. Each concentration point represents values in duplicates.

Chain of PCSK9 (Q8NBP7 153-692): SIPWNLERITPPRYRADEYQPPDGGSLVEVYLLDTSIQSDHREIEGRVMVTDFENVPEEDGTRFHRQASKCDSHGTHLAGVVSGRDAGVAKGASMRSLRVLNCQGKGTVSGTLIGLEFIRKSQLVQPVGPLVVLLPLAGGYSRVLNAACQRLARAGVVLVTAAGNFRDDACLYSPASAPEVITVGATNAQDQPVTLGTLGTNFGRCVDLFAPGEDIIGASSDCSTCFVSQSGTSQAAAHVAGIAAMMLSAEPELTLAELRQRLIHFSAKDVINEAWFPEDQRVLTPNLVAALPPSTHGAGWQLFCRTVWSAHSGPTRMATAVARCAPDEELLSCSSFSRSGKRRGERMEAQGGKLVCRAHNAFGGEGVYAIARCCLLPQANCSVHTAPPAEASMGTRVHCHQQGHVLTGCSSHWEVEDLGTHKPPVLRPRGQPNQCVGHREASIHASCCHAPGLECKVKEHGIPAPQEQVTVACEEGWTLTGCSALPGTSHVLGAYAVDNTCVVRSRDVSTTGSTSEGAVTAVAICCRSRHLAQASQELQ
Chain of PCSK9 (Q8NBP7 31-152 partner limits assumed): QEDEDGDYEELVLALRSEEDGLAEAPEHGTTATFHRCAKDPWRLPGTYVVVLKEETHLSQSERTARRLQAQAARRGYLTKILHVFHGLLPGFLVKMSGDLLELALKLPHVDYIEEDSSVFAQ

Compound: Cc1oc(-c2ccncc2)nc1CC1COC(C)(C(=O)NCC(=O)N2CCOCC2)OC1 (centres unmarked) [Example 87, 2-methyl-5-t-((5-methyl-2-(pyridin-4-yl)oxazol-4-yl)methyl)-N-(2-morpholino-2-oxoethyl)-1,3-dioxane-2-carboxamide]
- % Inhibition PCSK9 (Concentration 10 μM, 10 µM): 12%
- % Inhibition PCSK9 (Concentration 100 μM, 100 µM): 7%

Compound: Cc1oc(-c2ccccc2)nc1CC1COC(C)(C(=O)N2CCS(=O)(=O)CC2)OC1 (centres unmarked) [Example 17, (1,1-dioxidothiomorpholino)(2-methyl-5-c-((5-methyl-2-phenyloxazol-4-yl)methyl)-1,3-dioxan-2-yl)methanone]
- % Inhibition PCSK9 (Concentration 100 μM): 15%

Compound: Cc1oc(-c2ccccc2)nc1CC1COC(C)(C(=O)N2CCOCC2)OC1 (centres unmarked) [Example 11, (2-methyl-5-((5-methyl-2-phenyloxazol-4-yl)methyl)-1,3-dioxan-2-yl)(morpholino)methanone]
- inhibition at 5 µM (Concentration 5 μM): 20%
- inhibition at 10 µM (Concentration 10 μM): 30%
- inhibition at 100 µM (Concentration 100 μM): 44%

Compound: Cc1oc(-c2ccccc2)nc1CC1COC(C)(C(=O)NCC(=O)N2CCSCC2)OC1 (centres unmarked) [Example 23, 2-methyl-5-c-((5-methyl-2-phenyloxazol-4-yl)methyl)-N-(2-oxo-2-thiomorpholinoethyl)-1,3-dioxane-2-carboxamide]
- % Inhibition PCSK9 (Concentration 10 μM): 21%
- % Inhibition PCSK9 (Concentration 100 μM): 22%

Compound: Cc1ccc(-c2nc(CC3COC(C)(C(=O)NCC4CCOCC4)OC3)c(C)o2)cc1 (centres unmarked) [Example 62, 2-methyl-5-((5-methyl-2-(p-tolyl)oxazol-4-yl)methyl)-N—((tetrahydro-2H-pyran-4-yl)methyl)-1,3-dioxane-2-carboxamide]
- inhibition at 0.1 µM (Concentration 0.1 μM): 17%
- inhibition at 1 µM (Concentration 1 μM): 21%
- inhibition at 10 µM (Concentration 10 μM): 14%
- inhibition at 100 µM (Concentration 100 μM): 41%

Compound: Cc1oc(-c2ccccc2)nc1CCC1COC(C)(C(=O)N2CCSCC2)OC1 (centres unmarked) [Example 45, (2-methyl-5-c-(2-(5-methyl-2-phenyloxazol-4-yl)ethyl)-1,3-dioxan-2-yl)(thiomorpholino)methanone]
- % Inhibition PCSK9 (Concentration 10 μM): 11%
- % Inhibition PCSK9 (Concentration 100 μM): 18%

Compound: Cc1ccc(-c2nc(CC3COC(C)(C(=O)N4CCOCC4)OC3)c(C)o2)cc1 (centres unmarked) [Example 65, (2-methyl-5-((5-methyl-2-(p-tolyl)oxazol-4-yl)methyl)-1,3-dioxan-2-yl)(morpholino)methanone]
- inhibition at 1 µM (Concentration 1 μM): 11%
- inhibition at 10 µM (Concentration 10 μM): 26%
- inhibition at 100 µM (Concentration 100 μM): 35%

Compound: Cc1oc(-c2ccncc2)nc1CC1COC(C)(C(=O)NO)OC1 (centres unmarked) [Example 81, N-hydroxy-2-methyl-5-t-((5-methyl-2-(pyridin-4-yl)oxazol-4-yl)methyl)-1,3-dioxane-2-carboxamide]
- % Inhibition PCSK9 (Concentration 1 μM, 1 µM): 7%
- % Inhibition PCSK9 (Concentration 10 μM, 10 µM): 12%
- % Inhibition PCSK9 (Concentration 100 μM, 100 µM): 23%

Compound: Cc1oc(-c2ccccc2)nc1CC1COC(C)(C(=O)NCC(=O)N2CCOCC2)OC1 (centres unmarked) [Example 18, 2-methyl-5-((5-methyl-2-phenyloxazol-4-yl)methyl)-N-(2-morpholino-2-oxoethyl)-1,3-dioxane-2-carboxamide]
- inhibition at 1 µM (Concentration 1 μM): 40%
- inhibition at 100 µM (Concentration 100 μM): 39%

Compound: Cc1ccc(-n2nc(C(C)(C)C)cc2CC2COC(C)(C(=O)N3CCN(C)CC3)OC2)cc1 (centres unmarked) [Example 105, (5-((3-(tert-butyl)-1-(p-tolyl)-1H-pyrazol-5-yl)methyl)-2-methyl-1,3-dioxan-2-yl)(4-methylpiperazin-1-yl)methanone]
- inhibition at 10 µM (Concentration 10 μM): 10%
- inhibition at 100 µM (Concentration 100 μM): 40%

Compound: Cc1oc(-c2ccccc2)nc1CCC1COC(C)(C(=O)NCC(=O)N2CCOCC2)OC1 (centres unmarked) [Example 47, 2-methyl-5-(2-(5-methyl-2-phenyloxazol-4-yl)ethyl)-N-(2-morpholino-2-oxoethyl)-1,3-dioxane-2-carboxamide]
- inhibition at 1 µM (Concentration 1 μM): 38%
- inhibition at 10 µM (Concentration 10 μM): 38%
- inhibition at 100 µM (Concentration 100 μM): 42%

Compound: (2-methyl-5-c-(2-(5-methyl-2-phenyloxazol-4-yl)ethyl)-1,3-dioxan-2-yl)(piperidin-1-yl)methanone [Example 44]
- % Inhibition PCSK9 (10 µM): 14%
- % Inhibition PCSK9 (100 µM): 25%

Compound: Cc1oc(-c2ccccc2)nc1CC1COC(C)(C(=O)NCC(=O)NCC2CCOCC2)OC1 (centres unmarked) [Example 25, 2-methyl-5-c-((5-methyl-2-phenyloxazol-4-yl)methyl)-N-(2-oxo-2-(((tetrahydro-2H-pyran-4-yl)methyl)amino)methyl)-1,3-dioxane-2-carboxamide]
- % Inhibition PCSK9 (Concentration 10 μM): 15%
- % Inhibition PCSK9 (Concentration 100 μM): 16%

Compound: Cc1oc(-c2ccncc2)nc1CC1COC(C)(C(=O)NCC(=O)NCC2CCOCC2)OC1 (centres unmarked) [Example 88, 2-methyl-5-c-((5-methyl-2-(pyridin-4-yl)oxazol-4-yl)methyl)-N-(2-oxo-2-(((tetrahydro-2H-pyran-4-yl)methyl)amino)ethyl)-1,3-dioxane-2-carboxamide]
- % Inhibition PCSK9 (Concentration 10 μM, 10 µM): 10%
- % Inhibition PCSK9 (Concentration 100 μM, 100 µM): 15%

Compound: Cc1ccc(-c2nc(CC3COC(C)(C(=O)NO)OC3)c(C)o2)cc1 (centres unmarked) [Example 60, N-hydroxy-2-methyl-5-c-((5-methyl-2-(p-tolyl)oxazol-4-yl)methyl)-1,3-dioxane-2-carboxamide]
- % Inhibition PCSK9 (Concentration 1 μM): 28%
- % Inhibition PCSK9 (Concentration 10 μM, 10 µM): 26%
- % Inhibition PCSK9 (Concentration 100 μM, 100 µM): 70%

Compound: Cc1ccc(-c2nc(CC3COC(C)(C(=O)NO)OC3)c(C)o2)cc1 (centres unmarked) [Example 61, N-hydroxy-2-methyl-5-t-((5-methyl-2-(p-tolyl)oxazol-4-yl)methyl)-1,3-dioxane-2-carboxamide]
- % Inhibition PCSK9 (Concentration 10 μM, 10 µM): 21%
- % Inhibition PCSK9 (Concentration 100 μM, 100 µM): 32%

Compound: Cc1oc(-c2ccccc2)nc1CCC1COC(C)(C(=O)NO)OC1 (centres unmarked) [Example 35, N-hydroxy-2-methyl-5-c-(2-(5-methyl-2-phenyloxazol-4-yl)ethyl)-1,3-dioxane-2-carboxamide]
- % Inhibition PCSK9 (Concentration 1 μM, 1 µM): 18%
- % Inhibition PCSK9 (Concentration 10 μM): 19%
- % Inhibition PCSK9 (Concentration 100 μM, 100 µM): 19%

Compound: Cc1ccc(-c2nc(CC3COC(C)(C(=O)NCC4CCOCC4)OC3)c(C)o2)s1 (centres unmarked) [Example 75, 2-methyl-5-t-((5-methyl-2-(5-methylthiophen-2-yl)oxazol-4-yl)methyl)-N—((tetrahydro-2H-pyran-4-yl)methyl)-1,3-dioxane-2-carboxamide]
- % Inhibition PCSK9 (Concentration 1 μM, 1 µM): 15%
- % Inhibition PCSK9 (Concentration 10 μM, 10 µM): 11%
- % Inhibition PCSK9 (Concentration 100 μM, 100 µM): 20%

Compound: Cc1ccc(-c2nc(CC3COC(C)(C(=O)NCC4CCOCC4)OC3)c(C)o2)s1 (centres unmarked) [Example 74, 2-methyl-5-c-((5-methyl-2-(5-methylthiophen-2-yl)oxazol-4-yl)methyl)-N—((tetrahydro-2H-pyran-4-yl)methyl)-1,3-dioxane-2-carboxamide]
- % Inhibition PCSK9 (Concentration 1 μM, 1 µM): 4%
- % Inhibition PCSK9 (Concentration 10 μM, 10 µM): 15%
- % Inhibition PCSK9 (Concentration 100 μM, 100 µM): 27%

Compound: Cc1oc(-c2ccccc2)nc1CCC1COC(C)(C(=O)N2CCN(C)CC2)OC1 (centres unmarked) [Example 43, (2-methyl-5-c-(2-(5-methyl-2-phenyloxazol-4-yl)ethyl)-1,3-dioxan-2-yl)(4-methylpiperazin-1-yl)methanone]
- % Inhibition PCSK9 (Concentration 10 μM): 8%
- % Inhibition PCSK9 (Concentration 100 μM): 10%

Further lines, results first:

- % Inhibition PCSK9 (Concentration 1 μM, 1 µM): 10%
- % Inhibition PCSK9 (Concentration 100 μM, 100 µM): 24%
Compound: Cc1oc(-c2ccccc2)nc1CCC1COC(C)(C(=O)NO)OC1 (centres unmarked) [Example 36, N-hydroxy-2-methyl-5t-(2-(5-methyl-2-phenyloxazol-4-yl)ethyl)-1,3-dioxane-2-carboxamide]

- % Inhibition PCSK9 (Concentration 1 μM, 1 µM): 20%
- % Inhibition PCSK9 (Concentration 10 μM, 10 µM): 25%
- % Inhibition PCSK9 (Concentration 100 μM): 42%
Compound: Cc1oc(-c2ccncc2)nc1CC1COC(C)(C(=O)N2CCOCC2)OC1 (centres unmarked) [Example 83, (2-methyl-5-t-((5-methyl-2-(pyridin-4-yl)oxazol-4-yl)methyl)-1,3-dioxan-2-yl)(morpholino)methanone]

- % Inhibition PCSK9 (Concentration 10 μM): 20%
- % Inhibition PCSK9 (Concentration 100 μM): 32%
Compound: Cc1oc(-c2ccccc2)nc1CCC1COC(C)(C(=O)NCC(=O)N2CCSCC2)OC1 (centres unmarked) [Example 52, 2-methyl-5-c-(2-(5-methyl-2-phenyloxazol-4-yl)ethyl)-N-(2-oxo-2-thiomorpholinoethyl)-1,3-dioxane-2-carboxamide]

- % Inhibition PCSK9 (Concentration 10 μM): 10%
- % Inhibition PCSK9 (Concentration 100 μM): 35%
Compound: Cc1oc(-c2ccccc2)nc1CCC1COC(C)(C(=O)NCC(=O)N2CCN(C)CC2)OC1 (centres unmarked) [Example 51, 2-methyl-5-c-(2-(5-methyl-2-phenyloxazol-4-yl)ethyl)-N-(2-(4-methylpiperazin-1-yl)-2-oxoethyl)-1,3-dioxane-2-carboxamide]

- inhibition at 10 µM (Concentration 10 μM): 23%
- inhibition at 100 µM (Concentration 100 μM): 30%
Compound: CC(=O)C(Cc1ccccc1)NC(=O)CNC(=O)C1(C)OCC(CCc2nc(-c3ccccc3)oc2C)CO1 (centres unmarked) [Example 55, 2-methyl-5-(2-(5-methyl-2-phenyloxazol-4-yl)ethyl)-N-(2-oxo-2-((3-oxo-1-phenylbutan-2-yl)amino)ethyl)-1,3-dioxane-2-carboxamide]

- % Inhibition PCSK9 (Concentration 1 μM): 6%
- % Inhibition PCSK9 (Concentration 10 μM, 10 µM): 17%
- % Inhibition PCSK9 (Concentration 100 μM, 100 µM): 27%
Compound: Cc1ccc(-c2nc(CC3COC(C)(C(=O)N4CCOCC4)OC3)c(C)o2)s1 (centres unmarked) [Example 76]

- % Inhibition PCSK9 (Concentration 1 μM, 1 µM): 23%
- % Inhibition PCSK9 (Concentration 10 μM, 10 µM): 25%
- % Inhibition PCSK9 (Concentration 100 μM, 100 µM): 31%
Compound: Cc1ccc(-c2nc(CC3COC(C)(C(=O)N4CCOCC4)OC3)c(C)o2)cc1 (centres unmarked) [Example 66, (2-methyl-5-c-((5-methyl-2-(p-tolyl)oxazol-4-yl)methyl)-1,3-dioxan-2-yl)(morpholino)methanone]

- % Inhibition PCSK9 (Concentration 100 μM): 12%
Compound: Cc1oc(-c2ccccc2)nc1CC1COC(C)(C(=O)N2CCSCC2)OC1 (centres unmarked) [Example 16, (2-methyl-5-c-((5-methyl-2-phenyloxazol-4-yl)methyl)-1,3-dioxan-2-yl)(thiomorpholino)methanone]

- % Inhibition PCSK9 (Concentration 10 μM): 15%
- % Inhibition PCSK9 (Concentration 100 μM): 12%
Compound: Cc1oc(-c2ccccc2)nc1CC1COC(C)(C(=O)NCC2CCOCC2)OC1 (centres unmarked) [Example 9, 2-methyl-5-c-((5-methyl-2-phenyloxazol-4-yl)methyl)-N—((tetrahydro-2H-pyran-4-yl)methyl)-1,3-dioxane-2-carboxamide]

- % Inhibition PCSK9 (Concentration 10 μM, 10 µM): 14%
- % Inhibition PCSK9 (Concentration 100 μM, 100 µM): 16%
Compound: Cc1ccc(-c2nc(CC3COC(C)(C(=O)N4CCOCC4)OC3)c(C)o2)s1 (centres unmarked) [Example 77]
